The results in this text go back to ChEMBL document CHEMBL3751821, “The semi-synthesis of novel andrographolide analogues and anti-influenza virus activity evaluation of their derivatives” (Bioorg Med Chem Lett, 2016).

One data set concerns Influenza A virus H3N2. Nature of the data set: Antiviral activity against Influenza A virus H3N2 A3/JINGKE/30/95 infected in MDCK cells assessed as inhibition of virus-induced cytopathic effect after 72 hrs. Type of data set: functional, organism-based.
Data set [1] in a line: (§1) Cytotoxicity against MDCK cells after 72 hrs by MTT assay. In kind it is cell-based, Canis lupus familiaris. The conditions noted are these: dog, MDCK cells; read-out: TC50. A general note: Formazan colour is commonly taken as a measure of viable cells.
The subject of a further data set is MDCK. Described as §1. Type of data set: cell-based, Canis lupus familiaris. The conditions noted are these: dog, mdck, 72 h.
Data set [2] can be described thus: Therapeutic index, ratio of TC50 for MDCK cells to IC50 for Influenza A virus H3N2 A3/JINGKE/30/95. Type of data set: cell-based. The following applies: dog, read-out: TI.
Where [3] appears, read: Influenza A virus, A3/JINGKE/30/95, MDCK, 72 h, read-out: IC50.

In brackets after ≈: the same amount, converted by molar mass.

Take `C[C@@]1(CO)[C@H](O)CC[C@@]2(C)C(CCC3=CCOC3=O)=C(Cn3ccc(=O)[nH]c3=O)CC[C@H]12`: in the data set on Influenza A virus H3N2 (mdck), the concentration for half-maximal inhibition (IC50) entry is recorded as “Not Active”. For the same molecule, the CC50 at 72 h in data set [1] was more than 200 mg/L.

Take `C[C@@]1(CO)[C@H](O)CC[C@@]2(C)C(CCC3=CCOC3=O)=C(CNC34CC5CC(CC(C5)C3)C4)CC[C@H]12`: in the data set with Influenza A virus H3N2 (mdck), the IC50 result is “Not Active”. Moreover, the CC50 at 72 h in data set [1] was more than 200 mg/L.

As to `C[C@]1(CO)[C@H]2CC=C(Cn3ccc(=O)[nH]c3=O)[C@@H](CCC3=CCOC3=O)[C@]2(C)CC[C@H]1O`, the 50% inhibitory concentration (IC50) in the data set with Influenza A virus H3N2 (setting [3]) came out at 192 mg/L (≈ 431 µM). In the data set with MDCK, the TC50 entry is given as “Non-toxic”.

For the molecule `C[C@]1(CO)[C@H]2CC=C(Cn3ccnc3)[C@@H](CCC3=CCOC3=O)[C@]2(C)CC[C@H]1O`, in the data set on Influenza A virus H3N2 (setting [3]), the IC50 was determined as 201 mg/L (≈ 502 µM). For the same molecule, the CC50 at 72 h in data set [1] stood at 212 mg/L (≈ 529 µM). The selectivity ratio in data set [2] worked out at 1.05.

Take `C[C@]1(CO)[C@H]2CC=C(Cn3cnc4ncnc(N)c43)[C@@H](CCC3=CCOC3=O)[C@]2(C)CC[C@H]1O`: the IC50 in the data set on Influenza A virus H3N2 (setting [3]) was 192 mg/L (≈ 411 µM). Further, the CC50 at 72 h in data set [1] turned out to be 524 mg/L (≈ 1120 µM). For the same molecule, in data set [2], the selectivity ratio was determined as 2.72.

On to `C[C@]1(CO)[C@H]2CC=C(Cn3cccn3)[C@@H](CCC3=CCOC3=O)[C@]2(C)CC[C@H]1O`, for which, in the data set on Influenza A virus H3N2 (mdck), the IC50 entry is “Not Active”. Moreover, the CC50 at 72 h in data set [1] amounted to 122 mg/L (≈ 305 µM).

As for `C[C@]1(CO)[C@H]2CC=C(Cn3cncn3)[C@@H](CCC3=CCOC3=O)[C@]2(C)CC[C@H]1O`, in the data set with Influenza A virus H3N2 (mdck), the 50% inhibitory concentration (IC50) entry is listed as “Not Active”. Moreover, the TC50 result with MDCK is “Non-toxic”.

With `C[C@@]1(CO)[C@H](O)CC[C@@]2(C)C(CCC3=CCOC3=O)=C(CN3CCOCC3)CC[C@H]12`, the IC50 entry in the data set with Influenza A virus H3N2 (mdck) is “Not Active”. Also, the CC50 at 72 h in data set [1] is more than 200 mg/L.

Turning to `C[C@]1(CO)[C@H]2CC=C(Cn3ccc(N)nc3=O)[C@@H](CCC3=CCOC3=O)[C@]2(C)CC[C@H]1O`, in the data set with Influenza A virus H3N2 (setting [3]), the IC50 came to 186 mg/L (≈ 419 µM). For the same molecule, in data set [1], the CC50 at 72 h was found to be 491 mg/L (≈ 1110 µM). Moreover, the selectivity ratio in data set [2] stood at 2.64.

On to `C[C@]1(CO)[C@H]2CC=C(CN3CCOCC3)[C@@H](CCC3=CCOC3=O)[C@]2(C)CC[C@H]1O`, for which the IC50 result in the data set with Influenza A virus H3N2 (mdck) is given as “Not Active”. In addition, the TC50 entry in the data set on MDCK is “Non-toxic”.

As to `C[C@]1(CO)[C@H]2CC=C(CNCc3ccccc3)[C@@H](CCC3=CCOC3=O)[C@]2(C)CC[C@H]1O`, in the data set with Influenza A virus H3N2 (setting [3]), the IC50 was 122 mg/L (≈ 277 µM). For the same molecule, in data set [1], the CC50 at 72 h was 965 mg/L (≈ 2190 µM). Further, in data set [2], the selectivity ratio came to 7.91.

As for `Cc1cn(CC2=C(CCC3=CCOC3=O)[C@]3(C)CC[C@@H](O)[C@@](C)(CO)[C@H]3CC2)c(=O)[nH]c1=O`, the concentration for half-maximal inhibition (IC50) result in the data set on Influenza A virus H3N2 (mdck) is “Not Active”. Moreover, the CC50 at 72 h in data set [1] was more than 200 mg/L.

For the molecule `C[C@@]1(CO)[C@H](O)CC[C@@]2(C)C(CCC3=CCOC3=O)=C(Cn3cncn3)CC[C@H]12`, in the data set with Influenza A virus H3N2 (mdck), the 50% inhibitory concentration (IC50) result is “Not Active”. Moreover, the CC50 at 72 h in data set [1] was more than 200 mg/L.

Turning to `Cc1cn(CC2=CC[C@@H]3[C@](C)(CO)[C@H](O)CC[C@@]3(C)[C@@H]2CCC2=CCOC2=O)c(=O)[nH]c1=O`, in the data set with Influenza A virus H3N2 (setting [3]), the IC50 stood at 201 mg/L (≈ 438 µM). Besides, the TC50 entry with MDCK is reported as “Non-toxic”.

On to `C[C@]1(CO)[C@H]2CC=C(CNC34CC5CC(CC(C5)C3)C4)[C@@H](CCC3=CCOC3=O)[C@]2(C)CC[C@H]1O`, for which the concentration for half-maximal inhibition (IC50) in the data set with Influenza A virus H3N2 (setting [3]) came to 161 mg/L (≈ 332 µM). Moreover, the CC50 at 72 h in data set [1] was found to be 2380 mg/L (≈ 4910 µM). In addition, the selectivity ratio in data set [2] was 14.8.

Regarding `C[C@@]1(CO)[C@H](O)CC[C@@]2(C)C(CCC3=CCOC3=O)=C(Cn3ccnc3)CC[C@H]12`, in the data set on Influenza A virus H3N2 (mdck), the IC50 result is listed as “Not Active”. In data set [1], the CC50 at 72 h was more than 200 mg/L.

As for `C[C@@]1(CO)[C@H](O)CC[C@@]2(C)C(CCC3=CCOC3=O)=C(CNCc3ccccc3)CC[C@H]12`, the IC50 result in the data set with Influenza A virus H3N2 (mdck) was “Not Active”. The CC50 at 72 h in data set [1] is more than 200 mg/L.

As for `C[C@@]1(CO)[C@H](O)CC[C@@]2(C)C(CCC3=CCOC3=O)=C(Cn3ccc(N)nc3=O)CC[C@H]12`, in the data set on Influenza A virus H3N2 (mdck), the IC50 result is “Not Active”. Moreover, the CC50 at 72 h in data set [1] is more than 200 mg/L.

With `C=C1CC[C@@H]2[C@](C)(CO)[C@H](O)CC[C@@]2(C)[C@@H]1CC(C1=CCOC1=O)S(=O)(=O)[O-].[Na+]` (some centres not stated), in the data set with Influenza A virus H3N2 (setting [3]), the 50% inhibitory concentration (IC50) was found to be 176 mg/L. In data set [1], the CC50 at 72 h was 2280 mg/L. Further, the selectivity ratio in data set [2] was determined as 12.9.

For `C[C@@]12CC[C@@H](O)[C@@](C)(CO)C1CCC(CO)=C2CCC1=CCOC1=O` (single isomer, unassigned), in the data set with Influenza A virus H3N2 (mdck), the IC50 entry is given as “Not Active”. The CC50 at 72 h in data set [1] was determined as 124 mg/L (≈ 355 µM).

Turning to `C[C@]1(CO)C2CC=C(CO)[C@@H](CCC3=CCOC3=O)[C@]2(C)CC[C@H]1O` (single isomer, unassigned), in the data set with Influenza A virus H3N2 (setting [3]), the IC50 stood at 197 mg/L (≈ 562 µM). Besides, the CC50 at 72 h in data set [1] amounted to 678 mg/L (≈ 1940 µM). Also, the selectivity ratio in data set [2] turned out to be 3.44.

`NC(=O)c1ncn([C@@H]2O[C@H](CO)[C@@H](O)[C@H]2O)n1` [RIBAVIRIN]: in the data set on Influenza A virus H3N2 (setting [3]), the IC50 turned out to be 87.7 mg/L (≈ 359 µM). The CC50 at 72 h in data set [1] was found to be 3280 mg/L (≈ 13400 µM). Moreover, the selectivity ratio in data set [2] came out at 37.4.

For orientation: IC50 means the midpoint of a concentration-inhibition curve.
